Patent publication US20050288300A1, “Methods of use fluoroquinolone compounds against maxillary sinus pathogenic bacteria” (LG Life Sciences Limited., priority 1999, published 2005)
Converted amounts (≈) assume the structure as drawn.

Key:
Format in all cases: cell-based
[1] = MIC by agar dilution, maxillary sinus isolates; conditions: Streptococcus spp.: 5 Enterobacteriaceae, 6 non-fermentative Gram negative bacilli, 2 Neisseria meningitidis, 2 beta-haemolytic Streptococcus
Procedure: (§1) Test strains were obtained from recent maxillary sinus aspiration. Identification of organisms was by standard methods (see, for example, Murray, P. R., et al. Manual of Clinical Microbiology. 6th ed. American Society of Microbiology 1995: 282-620).
(§2) Antimicrobial activity was tested against 250 selected isolates (Table 1).
(§3) The agar dilution method using replicate plating of the organisms onto a series of agar plates of increasing concentrations was used (see, for example, National Committee for Clinical Laboratory Standards. Methods for antimicrobial susceptibility tests for bacteria that growth aerobically. Approved standards M 7-A4. National Committee for Laboratory Standards, Villanova, Pa., 1997).
(§4) MICs were determined by using doubling dilutions of between 0.02-256 mg/L with an inoculum of 10^4 CFU in area of 5-8 mm.
(§5) Haemophilus Test Medium was used for Haemophilus spp. and Wilkins-Chalgren agar was used for anaerobes.

Anaerobic strains = assay: MIC by agar dilution, maxillary sinus isolates; conditions: for MIC: 24 h, Anaerobic strains (n = 22): 12 Bacteroides spp., 7 Peptostreptococcus spp., 3 Bacteroides urealyticus
Procedure: as §1, §2, §3, §4, §5

Haemophilus influenzae = assay: MIC by agar dilution, maxillary sinus isolates; conditions: H. influenzae (n = 45); for MIC / MIC50 / MIC90: Haemophilus influenzae; for MIC: 24 h
Procedure: as §1, §2, §3, §4, §5

[2] = tested on: Haemophilus parainfluenzae; assay: MIC by agar dilution, maxillary sinus isolates; conditions: H. parainfluenzae (n = 10); for MIC: 24 h
Procedure: as §1, §2, §3, §4, §5

Moraxella catarrhalis = assay: MIC by agar dilution, maxillary sinus isolates; conditions: M. catarrhalis (n = 45); for MIC / MIC50 / MIC90: Moraxella catarrhalis; for MIC: 24 h
Procedure: as §1, §2, §3, §4, §5

Staphylococcus aureus = assay: MIC by agar dilution, maxillary sinus isolates; conditions: S. aureus (n = 31)
Procedure: as §1, §2, §3, §4, §5

Streptococcus pneumoniae = assay: MIC by agar dilution, maxillary sinus isolates; conditions: S. pneumoniae (n = 85); for MIC / MIC50 / MIC90: Streptococcus pneumoniae; for MIC: 24 h
Procedure: as §1, §2, §3, §4, §5

Streptococcus spp. = assay: MIC by agar dilution, maxillary sinus isolates; conditions: Streptococcus spp. (various other strains, 15)
Procedure: as §1, §2, §3, §4, §5

SMILES | MIC Range [1] | MIC (Anaerobic strains) [µg/mL] | MIC (Haemophilus influenzae) [µg/mL] | MIC50 (Haemophilus influenzae) [µg/mL] | MIC90 (Haemophilus influenzae) [µg/mL] | MIC [2] [µg/mL] | MIC (Moraxella catarrhalis) [µg/mL] | MIC50 (Moraxella catarrhalis) [µg/mL] | MIC Range (Staphylococcus aureus) [µg/mL] | MIC (Streptococcus pneumoniae) [µg/mL] | MIC50 (Anaerobic strains; Anaerobic strains (n = 22)) [µg/mL] | MIC90 (Streptococcus pneumoniae) [µg/mL] | MIC50 (Staphylococcus aureus; Staphylococcus aureus) [µg/mL] | MIC 90% (Streptococcus pneumoniae) [µg/mL] | other results
CO/N=C1\CN(c2nc3c(cc2F)c(=O)c(C(=O)O)cn3C2CC2)CC1CN (racemic) [Gemifloxacin, (R,S)-7-(3-aminomethyl-4-methoxyiminopyrrolidin-1-yl)-1-cyclopropyl-6-fluoro-4-oxo-1,4-dihydro-1,8-naphthyridine-3-carboxylic acid] | ≦0.02-0.5 mg/L | 0.03 to 0.25 (≈ 0.077 to 0.642 µM) | 0.02 to 0.03 (≈ 0.0514 to 0.077 µM) | ≤ 0.02 | ≤ 0.02 | 0.02 to 0.12 (≈ 0.0514 to 0.308 µM) | 0.02 to 0.03 (≈ 0.0514 to 0.077 µM) | ≤ 0.02 | 0.03 to 1 | 0.02 to 0.06 (≈ 0.0514 to 0.154 µM) | – | – | – | – | MIC 90% (Haemophilus influenzae): ≦0.02 mg/L; MIC 90% (Moraxella catarrhalis): ≦0.02 mg/L; MIC90 (Moraxella catarrhalis): ≤ 0.02 µg/mL
CC1(C)S[C@@H]2[C@H](NC(=O)[C@H](N)c3ccc(O)cc3)C(=O)N2[C@H]1C(=O)O [Amoxycillin] | – | – | – | 0.25 (≈ 0.684 µM) | 2 (≈ 5.47 µM) | 0.03 to 1 (≈ 0.0821 to 2.74 µM) | 0.02 to 16 (≈ 0.0547 to 43.8 µM) | – | 0.06 to 2 | 0.02 to 1 (≈ 0.0547 to 2.74 µM) | 0.25 (≈ 0.684 µM) | 0.03 (≈ 0.0821 µM) | – | – | MIC50 [2]: 0.06 µg/mL (≈ 0.164 µM); MIC90 [2]: 1 µg/mL (≈ 2.74 µM); MIC 90% (Staphylococcus aureus): 1 µg/mL (≈ 2.74 µM); MIC90 (Staphylococcus aureus; Staphylococcus aureus): ≥ 1 µg/mL; MIC50 (Streptococcus pneumoniae): 0.03 µg/mL (≈ 0.0821 µM); MIC50 (Streptococcus spp.): 2 µg/mL (≈ 5.47 µM); MIC90 (Streptococcus spp.): 4 µg/mL (≈ 10.9 µM)
Cc1c(F)c(N2CCNC(C)C2)cc2c1c(=O)c(C(=O)O)cn2C1CC1 (centres unmarked) [Grepafloxacin] | ≦0.02-1 mg/L | 0.25 to 8 (≈ 0.696 to 22.3 µM) | 0.02 to 0.03 (≈ 0.0556 to 0.0835 µM) | ≤ 0.02 | ≤ 0.02 | 0.02 to 0.12 (≈ 0.0556 to 0.334 µM) | 0.02 to 0.25 (≈ 0.0556 to 0.696 µM) | ≤ 0.02 | 0.06 to 0.25 | 0.03 to 0.5 (≈ 0.0835 to 1.39 µM) | 0.25 (≈ 0.696 µM) | ≥ 0.25 | 0.12 (≈ 0.334 µM) | 0.25 (≈ 0.696 µM) | MIC90 (Anaerobic strains; Anaerobic strains (n = 22)): 8 µg/mL (≈ 22.3 µM); MIC 90% (Haemophilus influenzae): ≦0.02 mg/L; MIC90 [2]: 0.1 µg/mL (≈ 0.278 µM); MIC 90% (Moraxella catarrhalis): ≦0.02 mg/L; MIC90 (Moraxella catarrhalis): ≤ 0.02 µg/mL; MIC50 (Streptococcus pneumoniae): 0.25 µg/mL (≈ 0.696 µM)
C[C@H]1COc2c(N3CCN(C)CC3)c(F)cc3c(=O)c(C(=O)O)cn1c23 [Levofloxacin] | 0.03 to 0.25 µg/mL | 0.12 to 1 (≈ 0.332 to 2.77 µM) | 0.02 to 0.03 (≈ 0.0553 to 0.083 µM) | – | – | 0.03 to 0.25 (≈ 0.083 to 0.692 µM) | 0.02 to 0.12 (≈ 0.0553 to 0.332 µM) | – | 0.12 to 0.5 | 0.12 to 2 (≈ 0.332 to 5.53 µM) | – | – | – | 1 (≈ 2.77 µM) | MIC50 (Streptococcus spp.): 0.12 µg/mL (≈ 0.332 µM)
COc1c(N2C[C@@H]3CCCN[C@@H]3C2)c(F)cc2c(=O)c(C(=O)O)cn(C3CC3)c12 [Moxifloxacin] | ≦0.02-0.5 mg/L | – | 0.02 to 0.12 (≈ 0.0498 to 0.299 µM) | 0.13 (≈ 0.324 µM) | – | – | – | – | 0.03 to 0.12 | – | – | – | – | – | –
CC1COc2c(N3CCN(C)CC3)c(F)cc3c(=O)c(C(=O)O)cn1c23 (centres unmarked) [Ofloxacin] | 0.06 to 0.5 µg/mL | 0.25 to 2 (≈ 0.692 to 5.53 µM) | 0.02 to 0.06 (≈ 0.0553 to 0.166 µM) | – | – | – | 0.02 to 0.25 (≈ 0.0553 to 0.692 µM) | – | 0.25 to 1 | 0.25 to 4 (≈ 0.692 to 11.1 µM) | 0.5 (≈ 1.38 µM) | – | 0.5 (≈ 1.38 µM) | 2 (≈ 5.53 µM) | –
C[C@@H]1CN(c2c(F)c(N)c3c(=O)c(C(=O)O)cn(C4CC4)c3c2F)C[C@H](C)N1 [Sparfloxacin] | ≦0.02-0.5 mg/L | 0.25 to 16 (≈ 0.637 to 40.8 µM) | 0.03 to 1 (≈ 0.0765 to 2.55 µM) | – | – | – | 0.02 to 1 (≈ 0.051 to 2.55 µM) | ≤ 0.02 | – | 0.03 to 0.5 (≈ 0.0765 to 1.27 µM) | – | ≥ 0.25 | – | 0.5 (≈ 1.27 µM) | –
N[C@@H]1[C@H]2CN(c3nc4c(cc3F)c(=O)c(C(=O)O)cn4-c3ccc(F)cc3F)C[C@@H]12 [Trovafloxacin] | ≦0.02-0.5 mg/L | 0.06 to 4 (≈ 0.144 to 9.61 µM) | 0.02 to 0.06 (≈ 0.048 to 0.144 µM) | ≤ 0.02 | – | 0.02 to 0.12 (≈ 0.048 to 0.288 µM) | 0.02 to 0.06 (≈ 0.048 to 0.144 µM) | ≤ 0.02 | – | 0.02 to 0.12 (≈ 0.048 to 0.288 µM) | – | – | 0.03 (≈ 0.0721 µM) | – | MIC50 [2]: 0.03 µg/mL (≈ 0.0721 µM); MIC 90% (Staphylococcus aureus): 0.03 µg/mL (≈ 0.0721 µM)
